Test [1] concerns the target T1, Prostaglandin G/H synthase 2 (Homo sapiens, UniProt P35354).
T1 sequence (P35354 whole entry): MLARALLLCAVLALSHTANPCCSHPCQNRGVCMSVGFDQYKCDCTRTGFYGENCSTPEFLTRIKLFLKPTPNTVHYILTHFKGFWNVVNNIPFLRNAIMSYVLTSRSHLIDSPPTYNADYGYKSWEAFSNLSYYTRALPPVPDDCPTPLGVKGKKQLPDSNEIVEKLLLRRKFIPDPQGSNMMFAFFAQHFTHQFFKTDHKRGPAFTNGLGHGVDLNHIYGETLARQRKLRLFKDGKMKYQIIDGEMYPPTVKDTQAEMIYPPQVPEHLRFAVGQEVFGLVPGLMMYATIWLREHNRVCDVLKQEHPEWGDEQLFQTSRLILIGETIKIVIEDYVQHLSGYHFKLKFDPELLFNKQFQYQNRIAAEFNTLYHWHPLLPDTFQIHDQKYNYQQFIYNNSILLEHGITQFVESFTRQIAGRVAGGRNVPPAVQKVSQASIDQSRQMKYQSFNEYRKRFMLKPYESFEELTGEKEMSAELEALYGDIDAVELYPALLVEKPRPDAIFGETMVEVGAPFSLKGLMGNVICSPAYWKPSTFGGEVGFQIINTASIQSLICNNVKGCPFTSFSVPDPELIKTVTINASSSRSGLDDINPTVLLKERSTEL
The experiment in a line: Inhibition of human recombinant COX2 by EIA.

The nature of test [2]: Selectivity index, ratio of IC50 for ovine COX1 to IC50 for human recombinant COX2.
Test [3] addresses T2, Prostaglandin G/H synthase 1 (Ovis aries, UniProt P05979).
T2 sequence (P05979 whole entry): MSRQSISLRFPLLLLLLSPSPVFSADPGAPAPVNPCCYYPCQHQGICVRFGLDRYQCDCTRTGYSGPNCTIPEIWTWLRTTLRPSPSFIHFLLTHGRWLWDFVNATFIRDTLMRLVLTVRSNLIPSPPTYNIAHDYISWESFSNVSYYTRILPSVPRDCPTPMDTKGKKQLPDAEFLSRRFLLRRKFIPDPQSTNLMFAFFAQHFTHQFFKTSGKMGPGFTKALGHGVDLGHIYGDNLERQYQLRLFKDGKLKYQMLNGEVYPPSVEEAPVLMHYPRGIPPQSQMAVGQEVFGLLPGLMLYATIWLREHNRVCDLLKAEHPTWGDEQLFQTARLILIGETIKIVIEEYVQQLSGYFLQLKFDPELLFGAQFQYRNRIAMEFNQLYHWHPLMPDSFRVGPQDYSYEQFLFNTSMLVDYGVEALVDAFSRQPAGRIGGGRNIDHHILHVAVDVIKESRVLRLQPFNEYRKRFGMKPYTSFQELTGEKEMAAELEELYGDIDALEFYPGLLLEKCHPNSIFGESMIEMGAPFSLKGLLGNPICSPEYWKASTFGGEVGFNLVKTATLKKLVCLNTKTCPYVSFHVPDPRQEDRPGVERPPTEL
Description: Inhibition of ovine COX1 by EIA

The structures appear in SMILES notation.

The IC50 is the point on the concentration scale where inhibition reaches its midpoint.

For the compound `CCC(=C(c1ccccc1)c1ccccc1)c1ccc(S(C)(=O)=O)cc1`, the IC50 in test [1] came to 1.2 µM; in test [3] it was 31.6 µM. Further, the Ratio IC50 in test [2] amounted to 26.3.

With `CC/C(=C(\c1ccccc1)c1ccc(OC)cc1)c1ccc(S(C)(=O)=O)cc1`, the figures for the IC50 in test [1] and in test [3] were 10.7 µM and over 100 µM, respectively. Moreover, the Ratio IC50 in test [2] was over 9.3.

For the compound `CCCC/C(=C(\c1ccccc1)c1ccc(OCCF)cc1)c1ccc(S(C)(=O)=O)cc1`, the 50% inhibitory concentration (IC50) was 22.3 µM in test [1] and over 100 µM in test [3]. In test [2], the Ratio IC50 was over 4.5.

For `CS(=O)(=O)c1ccc(C(CCF)=C(c2ccccc2)c2ccccc2)cc1`, the IC50 in test [1] and in test [3] was over 100 µM each time.

In the case of `CCCC/C(=C(\c1ccccc1)c1ccc(OC)cc1)c1ccc(S(C)(=O)=O)cc1`, the IC50 is 7.7 µM in test [1] and over 100 µM in test [3]. Also, the Ratio IC50 in test [2] was over 13.

As to `CCCC/C(=C(\c1ccccc1)c1ccc(O)cc1)c1ccc(S(C)(=O)=O)cc1`, the IC50 was 11.8 µM in test [1] and over 100 µM in test [3]. In test [2], the Ratio IC50 is over 8.5.

Consider `CCCCC(=C(c1ccccc1)c1ccccc1)c1ccc(S(C)(=O)=O)cc1`, for which the values for the half-inhibitory concentration (IC50) in test [1] and in test [3] were 2.7 µM and 9.1 µM, respectively. Besides, the Ratio IC50 in test [2] worked out at 3.4.
